Data as given in PubChem BioAssay (NCI).
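GI50 marks 50% less growth. TGI: total growth inhibition.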

What was measured:
Test in all cases: NCI anticancer screen, dose series, 384-well format
[1] = system: HS 578T breast
[2] = system: T-47D breast
[3] = system: SK-MEL-28 melanoma
[4] = system: NCI-H460 NSCLC
[5] = system: UACC-62 melanoma
[6] = system: HL-60(TB) leukemia
[7] = system: M14 melanoma
[8] = system: SK-MEL-2 melanoma
[9] = system: MOLT-4 leukemia
[10] = system: MDA-MB-231 breast
[11] = system: ACHN renal
[12] = system: HCT-15 colon
[13] = system: MDA-MB-435 melanoma
[14] = system: EKVX NSCLC
[15] = system: HT29 colon
[16] = system: SN12C renal
[17] = system: OVCAR-3 ovarian
[18] = system: A498 renal
[19] = system: SR leukemia
[20] = system: SF-295 CNS
[21] = system: NCI-H226 lung
[22] = system: SK-OV-3 ovarian
[23] = system: UACC-257 melanoma
[24] = system: CCRF-CEM leukemia
[25] = system: OVCAR-5 ovarian
[26] = system: SK-MEL-5 melanoma
[27] = system: CAKI-1 renal
[28] = system: NCI/ADR-RES ovarian
[29] = system: COLO 205 colon
[30] = system: RPMI-8226 leukemia
[31] = system: U251 glioblastoma
[32] = system: TK-10 renal
[33] = system: IGROV1 ovarian
[34] = system: NCI-H322M lung
[35] = system: NCI-H23 lung
[36] = system: RXF 393 renal
[37] = system: MALME-3M melanoma
[38] = system: MDA-MB-468 breast
[39] = system: SF-539 CNS
[40] = system: SF-268 CNS
[41] = system: HOP-62 NSCLC
[42] = system: HCC-2998 colon
[43] = system: SNB-75 CNS
[44] = system: HOP-92 NSCLC
[45] = system: KM12 colon
[46] = system: PC-3 prostate
[47] = system: 786-0 renal
[48] = system: MCF7 breast
[49] = system: OVCAR-8 ovarian
[50] = system: SW-620 colon
[51] = system: SNB-19 CNS
[52] = system: A549 NSCLC
[53] = system: NCI-H522 lung
[54] = system: DU-145 prostate
[55] = system: OVCAR-4 ovarian
[56] = system: BT-549 breast

`CCc1ccc(/C=C2/SC(=S)NC2=O)cc1` was tested, and the GI50 [1] was 19.4 µM, the TGI [1] was 39.5 µM and the GI50 [2] was 23.6 µM. For the same compound, the TGI [2] was 49.4 µM, the GI50 [3] was 24.7 µM and the TGI [3] was 55.2 µM. For the same compound, the GI50 [4] was 17.8 µM, the TGI [4] was 33.3 µM and the GI50 [5] was 31.1 µM. It also gave a TGI [5] of 83.2 µM, a GI50 [6] of 20.3 µM and a TGI [6] of 34.9 µM. It also gave a GI50 [7] of 19.6 µM, a TGI [7] of 39.6 µM and a GI50 [8] of 20.9 µM. For the same compound, the TGI [8] was 37.7 µM, the GI50 [9] was 16.9 µM and the TGI [9] was 30.6 µM. It also gave a GI50 [10] of 20.7 µM, a TGI [10] of 49.5 µM and a GI50 [11] of 25 µM. It also gave a TGI [11] of 60.5 µM, a GI50 [12] of 18.5 µM and a TGI [12] of 44 µM. The GI50 [13] was 21.2 µM, the TGI [13] was 44.9 µM and the GI50 [14] was 20.8 µM. The TGI [14] was 49.5 µM, the GI50 [15] was 24.9 µM and the TGI [15] was 57.2 µM. It also gave a GI50 [16] of 29.1 µM, a TGI [16] of 95.8 µM and a GI50 [17] of 18 µM. For the same compound, the TGI [17] was 36.5 µM, the GI50 [18] was 16.7 µM and the TGI [18] was 33.1 µM. It also gave a GI50 [19] of 12.5 µM, a TGI [19] of 25.1 µM and a GI50 [20] of 33.7 µM. It also gave a TGI [20] of over 100 µM, a GI50 [21] of 16.7 µM and a TGI [21] of 36.5 µM. For the same compound, the GI50 [22] was 18.5 µM, the TGI [22] was 43.2 µM and the GI50 [23] was 21.3 µM. It also gave a TGI [23] of 42.1 µM, a GI50 [24] of 16.5 µM and a TGI [24] of 30.3 µM. For the same compound, the GI50 [25] was 17.5 µM, the TGI [25] was 43.5 µM and the GI50 [26] was 18.6 µM. The TGI [26] was 33.1 µM, the GI50 [27] was 19.3 µM and the TGI [27] was 47.6 µM. For the same compound, the GI50 [28] was 21 µM, the TGI [28] was 45 µM and the GI50 [29] was 27.1 µM. The TGI [29] was 54.1 µM, the GI50 [30] was 15.6 µM and the TGI [30] was 29.1 µM. It also gave a GI50 [31] of 17.3 µM, a TGI [31] of 33.1 µM and a GI50 [32] of 26.3 µM. It also gave a TGI [32] of 74.1 µM, a GI50 [33] of 30.5 µM and a TGI [33] of over 100 µM. For the same compound, the GI50 [34] was 22.5 µM, the TGI [34] was 44.8 µM and the GI50 [35] was 15.7 µM. The TGI [35] was 34.6 µM, the GI50 [36] was 21.2 µM and the TGI [36] was 42.7 µM. It also gave a GI50 [37] of 15.9 µM, a TGI [37] of 33.9 µM and a GI50 [38] of 16.3 µM. It also gave a TGI [38] of 33.1 µM, a GI50 [39] of 15.9 µM and a TGI [39] of 30.8 µM. For the same compound, the GI50 [40] was 19.3 µM, the TGI [40] was 45.8 µM and the GI50 [41] was 22.1 µM. The TGI [41] was 42.9 µM, the GI50 [42] was 21.6 µM and the TGI [42] was 43.6 µM. It also gave a GI50 [43] of 21.4 µM, a TGI [43] of 51.2 µM and a GI50 [44] of 18.1 µM. It also gave a TGI [44] of 37.9 µM, a GI50 [45] of 20.7 µM and a TGI [45] of 44.1 µM. The GI50 [46] was 23.4 µM, the TGI [46] was 49.8 µM and the GI50 [47] was 28.6 µM. For the same compound, the TGI [47] was 88 µM, the GI50 [48] was 26.2 µM and the TGI [48] was 68 µM. For the same compound, the GI50 [49] was 22.8 µM, the TGI [49] was 51 µM and the GI50 [50] was 24.5 µM. For the same compound, the TGI [50] was 59.6 µM, the GI50 [51] was 33.4 µM and the TGI [51] was over 100 µM. For the same compound, the GI50 [52] was 19.8 µM, the TGI [52] was 46.2 µM and the GI50 [53] was 14.7 µM. The TGI [53] was 36.9 µM, the GI50 [54] was 27.7 µM and the TGI [54] was 85.3 µM. For the same compound, the GI50 [55] was 13.6 µM, the TGI [55] was 46.9 µM and the GI50 [56] was 19.7 µM. The TGI [56] was 36.1 µM.
